Data: patent US10005744B2, “Compounds for the treatment or prevention of breast cancer” (JIANGSU ATOM BIOSCIENCE AND PHARMACEUTICAL CO., LTD., priority 2015, dated 2018)
Like-named read-outs stand apart in the source and are kept apart here.

Experiments:
Type in all cases: cell-based
[1] = test system: human colon cancer cells HT29; assay: Growth inhibition of human colon cancer cells HT29
Procedure: (§1) 1. Breast cancer cells MCF-7 (Luminal type cells) and MDA-MB-468 (basal-like cells, which are of the triple-negative type without epithelial-mesenchymal transition) were purchased from Cell Resource Center of Shanghai Institutes for Biological Sciences of the Chinese Academy of Sciences, and cultured with DMEM culture medium(containing 10% of fetal bovine serum, 10 U/mL of penicillin and 0.1 mg/mL of streptomycin) in a 5% CO2 incubator at 37[…] until the cell density was about 90%.
(§2) 2. The cells were inoculated to a 96-well plate at a cell population of 3×10^3/well and then cultured in the 5% CO2 incubator for 24 h at 37[…].
(§3) 3. Tested compounds of different concentration gradients were prepared by using the DMEM culture medium, and added into wells at 100 μL/well as tested compounds wells; and, the DMEM culture liquid was added into wells at 100 μL/well as negative control wells. At 37[…] and in the 5% CO2 incubator, the MCF-7 cells were cultured for 120 h, and MDA-MB-468 cells were cultured for 72 h.
(§4) 4. Resazurin (15 mg/50 mL), Methylene Blue (25 mg/10 mL), Potassium ferricyanide (0.329 g/100 mL) and Potassium ferrocyanide (0.422 g/100 mL) were dissolved into PBS (0.1 M, pH=7.4) to obtain Alamar Blue solution for standby.
(§5) 5. The cells were washed with PBS (0.1 M, pH=7.4) for two times, and the Alamar Blue solution was added into wells at 100 μL/well; and 100 μL of Alamar Blue solution was added into wells without cells to serve as blank control cells. The 96-well plate was placed into the 5% CO2 incubator at 37[…] and cultured for 3 h.
(§6) 6. The fluorescence value of the cells was detected at 530/590 nm by ELIASA Victor X4 (Perkin Elmer). The fluorescence value at each concentration was repetitively measured for 4 times to obtain an average value and a standard deviation. The cell viability was calculated by the following formula[User2]: […]
(§7) 7. The half inhibitory concentration (IC50) of the tested compounds againstt he cell lines was obtained according to the cell viability by Prism Graph software.
(§8) Growth inhibition tests of the tested compounds 7, 17, 18, 34, 35 and 41 on the human lung cancer cells H1299, human colon cancer cells HT29, human liver cancer cells SK-HEP-1, human colon cancer cells HCT116, human normal liver cells L-02 and WRL-68 were conducted, and the method refers to Embodiment 19 “Inhibition effects of the compounds on the growth of breast cancer cells MCF-7 and MDA-MB-468”.

[2] = test system: human liver cancer cells SK-HEP-1; assay: Growth inhibition of human liver cancer cells SK-HEP-1
Procedure: as §1, §2, §3, §4, §5, §6, §7, §8

MDA-MB-468 = assay: Growth inhibition of breast cancer cell line MDA-MB-468 (Alamar Blue); conditions: Homo sapiens, read-out: Half inhibitory concentration (IC50) against MDA-MB-468
Procedure: as §1, §2, §3, §4, §5, §6, §7

[3] = test system: human normal liver cells WRL-68; assay: Growth inhibition of human normal liver cells WRL-68
Procedure: as §1, §2, §3, §4, §5, §6, §7, §8

[4] = test system: human lung cancer cells H1299; assay: Growth inhibition of human lung cancer cells H1299
Procedure: as §1, §2, §3, §4, §5, §6, §7, §8

[5] = test system: human normal liver cells L-02; assay: Growth inhibition of human normal liver cells L-02
Procedure: as §1, §2, §3, §4, §5, §6, §7, §8

[6] = test system: human colon cancer cells HCT116; assay: Growth inhibition of human colon cancer cells HCT116
Procedure: as §1, §2, §3, §4, §5, §6, §7, §8

MCF-7 = assay: Growth inhibition of breast cancer cell line MCF-7 (Alamar Blue); conditions: Homo sapiens; for IC50: read-out: Half inhibitory concentration (IC50) against MCF-7
Procedure: as §1, §2, §3, §4, §5, §6, §7

[7] = HT-29, read-out: half inhibitory concentration (IC50)
[8] = SK-HEP1, read-out: half inhibitory concentration (IC50)
[9] = WRL68, read-out: half inhibitory concentration (IC50)
[10] = NCI-H1299, read-out: half inhibitory concentration (IC50)
[11] = L02, read-out: half inhibitory concentration (IC50)
[12] = HCT-116, read-out: half inhibitory concentration (IC50)

SMILES | IC50 [1, 7] [nM] | IC50 [2, 8] [nM] | IC50 (MDA-MB-468; MDA-MB-468, 72 h) [nM] | IC50 [3, 9] [nM] | IC50 [4, 10] [nM] | IC50 [5, 11] [nM] | IC50 [6, 12] [nM] | IC50 (MCF-7; MCF7, 120 h) [nM] | IC50 ([1]; HT-29, HT29 cells, range stated over the six cell lines, read-out: half inhibitory concentration (IC50)) [nM] | IC50 ([2]; SK-HEP1, SK-HEP-1 cells, range stated over the six cell lines, read-out: half inhibitory concentration (IC50)) [nM] | IC50 (MDA-MB-468; MDA-MB-468 cells cultured 72 h with compound, Alamar Blue) [nM] | IC50 ([3]; WRL68, WRL-68 cells, range stated over the six cell lines, read-out: half inhibitory concentration (IC50)) [nM] | IC50 ([4]; NCI-H1299, H1299 cells, range stated over the six cell lines, read-out: half inhibitory concentration (IC50)) [nM] | IC50 ([5]; L02, L-02 cells, range stated over the six cell lines, read-out: half inhibitory concentration (IC50)) [nM] | IC50 ([6]; HCT-116, HCT116 cells, range stated over the six cell lines, read-out: half inhibitory concentration (IC50)) [nM] | IC50 (MCF-7; MCF7, MCF-7 cells cultured 120 h with compound, Alamar Blue) [nM] | inhibition at 0.5 µM (MCF-7; MCF7, highest concentration, 500 nM, read-out: inhibition rate to MCF-7 cell line) [%]
Nc1c(F)cc(-c2nc3cc(F)ccc3[se]2)cc1Br [Compound 35, 2-bromo-6-fluoro-4-(5-fluorobenzoselenazole-2-yl)aniline] | > 10000 | > 10000 | 39.7 | > 10000 | > 10000 | > 10000 | > 10000 | 41.6 | – | – | – | – | – | – | – | – | –
Cc1ccc(-c2nc3cc(F)ccc3[se]2)cc1N [Compound 37, 5-(5-fluorobenzoselenazole-2-yl)-2-methylaniline] | – | – | 114 | – | – | – | – | 450 | – | – | – | – | – | – | – | – | –
Nc1ccc(-c2nc3cc(F)ccc3[se]2)cc1F [Compound 34, 2-fluoro-4-(5-fluorobenzoselenazole-2-yl)aniline] | > 10000 | > 10000 | 29.1 | > 10000 | > 10000 | > 10000 | > 10000 | 52.4 | – | – | – | – | – | – | – | – | –
Nc1ccc(-c2nc3cc(F)ccc3[se]2)cc1Br [Compound 14, 2-bromo-4-(5-fluorobenzoselenazole-2-yl)aniline] | – | – | 138 | – | – | – | – | 188 | – | – | – | – | – | – | – | – | –
Cc1ccc2[se]c(-c3ccc(N)c(C)c3)nc2c1 [Compound 26, 2-methyl-4-(5-methylbenzoselenazole-2-yl)aniline] | – | – | – | – | – | – | – | 134 | – | – | – | – | – | – | – | – | –
Cc1cc(-c2nc3cc(F)ccc3[se]2)ccc1N [Compound 17, 4-(5-fluorobenzoselenazole-2-yl)-2-methylaniline] | > 10000 | > 10000 | 58.5 | > 10000 | > 10000 | > 10000 | > 10000 | 72.8 | – | – | – | – | – | – | – | – | –
Cc1cc(-c2nc3cc(F)ccc3[se]2)cc(Br)c1N [Compound 18, 2-bromo-4-(5-fluorobenzoselenazole-2-yl)-6-methylaniline] | > 10000 | > 10000 | 70.9 | > 10000 | > 10000 | > 10000 | > 10000 | 91.9 | – | – | – | – | – | – | – | – | –
Nc1ccc(-c2nc3ccccc3[se]2)cc1Br [Compound 7, 4-(benzoselenazole-2-yl)-2-bromoaniline] | > 10000 | > 10000 | 74.1 | > 10000 | > 10000 | > 10000 | > 10000 | 56.7 | – | – | – | – | – | – | – | – | –
Nc1c(F)cc(-c2nc3cc(F)ccc3[se]2)cc1F [Compound 41, 2,6-difluoro-4-(5-fluorobenzoselenazole-2-yl)aniline] | > 10000 | > 10000 | 20.1 | > 10000 | > 10000 | > 10000 | > 10000 | 56.8 | – | – | – | – | – | – | – | – | –
CC(=O)O[C@H]1C(=O)[C@@]2(C)[C@H]([C@H](OC(=O)c3ccccc3)[C@]3(O)C[C@H](OC(=O)[C@H](O)[C@@H](NC(=O)c4ccccc4)c4ccccc4)C(C)=C1C3(C)C)[C@]1(OC(C)=O)CO[C@@H]1C[C@@H]2O [Paclitaxel, paclitaxel, reference compound] | – | – | – | – | – | – | – | – | 1.59 to 15.3 | 1.59 to 15.3 | 4.43 | 1.59 to 15.3 | 1.59 to 15.3 | 1.59 to 15.3 | 1.59 to 15.3 | 4.6 | 70
